Measured values from ChEMBL document CHEMBL1130839, “Synthesis and pharmacological activities of 13-dehydro derivatives of primary prostaglandins” (Bioorg Med Chem Lett, 1998).

How the values were obtained:
Assay type in all cases: functional
Cavia porcellus [1] = species on record: Cavia porcellus; assay: Compound was tested for contraction of guinea-pig ileum; conditions: read-out: ED50 (the source's name)
Cavia porcellus [2] = species on record: Cavia porcellus; assay: Compound was tested for relaxation of guinea-pig trachea precontracted in histamine
Homo sapiens = species on record: Homo sapiens; assay: Compound was tested for inhibition of ADP-induced human platelet aggregation
Cavia porcellus [3] = species on record: Cavia porcellus; assay: Compound was tested for relaxation of guinea-pig trachea precontracted with histamine
Cavia porcellus [4] = species on record: Cavia porcellus; assay: Compound was tested for […] PGE2-induced relaxation of guinea-pig trachea precontracted with carbachol
Rattus norvegicus = species on record: Rattus norvegicus; assay: Compound was tested for contraction of rat isolated uterine; conditions: read-out: ED50 (the source's name)

EC50 (Cavia porcellus [1]) [nM]	IC50 (Cavia porcellus [2]) [nM]	IC50 (Homo sapiens) [nM]	IC50 (Cavia porcellus [3]) [nM]	IC50 (Cavia porcellus [4]) [nM]	EC50 (Rattus norvegicus) [nM]	SMILES
260	5400	2600				CC/C=C\C[C@H](O)C#C[C@H]1[C@H](O)CC(=O)[C@@H]1C/C=C\CCCC(=O)O
0.23		3000	8900			CCCCC[C@H](O)C#C[C@H]1[C@H](O)CC(=O)[C@@H]1CCCCCCC(=O)O
0.18		3.4		2.6		CCCCC[C@H](O)C#C[C@H]1[C@H](O)CC(=O)[C@@H]1C/C=C\CCCC(=O)O
20					1000	CCCCC[C@H](O)C#C[C@@H]1[C@@H](CCCCCCC(=O)O)[C@@H](O)C[C@H]1O
